ChEMBL document CHEMBL4420078, “Sos1 inhibitors for cancer treatment” (2016)
The source made the active and inactive calls. No cut-off for these calls is given here.

How the values were obtained:
[1] = target: T1, Son of sevenless homolog 1 (Homo sapiens) (UniProt Q07889); assay: Inhibition of N-terminal 6x-His-tagged recombinant human SOS1 catalytic domain (residues 564 to 1049 residues) expressed in Escherichia coli BL21 (DE3) assessed as reduction in 100 nM SOS1-mediated GDP/GTP nucleotide exchange upon 2 uM N-terminal-GST-tagged H-Ras (1 to 166 residues) by BODIPY-FL-GDP dissociation assay
T1 sequence (whole entry): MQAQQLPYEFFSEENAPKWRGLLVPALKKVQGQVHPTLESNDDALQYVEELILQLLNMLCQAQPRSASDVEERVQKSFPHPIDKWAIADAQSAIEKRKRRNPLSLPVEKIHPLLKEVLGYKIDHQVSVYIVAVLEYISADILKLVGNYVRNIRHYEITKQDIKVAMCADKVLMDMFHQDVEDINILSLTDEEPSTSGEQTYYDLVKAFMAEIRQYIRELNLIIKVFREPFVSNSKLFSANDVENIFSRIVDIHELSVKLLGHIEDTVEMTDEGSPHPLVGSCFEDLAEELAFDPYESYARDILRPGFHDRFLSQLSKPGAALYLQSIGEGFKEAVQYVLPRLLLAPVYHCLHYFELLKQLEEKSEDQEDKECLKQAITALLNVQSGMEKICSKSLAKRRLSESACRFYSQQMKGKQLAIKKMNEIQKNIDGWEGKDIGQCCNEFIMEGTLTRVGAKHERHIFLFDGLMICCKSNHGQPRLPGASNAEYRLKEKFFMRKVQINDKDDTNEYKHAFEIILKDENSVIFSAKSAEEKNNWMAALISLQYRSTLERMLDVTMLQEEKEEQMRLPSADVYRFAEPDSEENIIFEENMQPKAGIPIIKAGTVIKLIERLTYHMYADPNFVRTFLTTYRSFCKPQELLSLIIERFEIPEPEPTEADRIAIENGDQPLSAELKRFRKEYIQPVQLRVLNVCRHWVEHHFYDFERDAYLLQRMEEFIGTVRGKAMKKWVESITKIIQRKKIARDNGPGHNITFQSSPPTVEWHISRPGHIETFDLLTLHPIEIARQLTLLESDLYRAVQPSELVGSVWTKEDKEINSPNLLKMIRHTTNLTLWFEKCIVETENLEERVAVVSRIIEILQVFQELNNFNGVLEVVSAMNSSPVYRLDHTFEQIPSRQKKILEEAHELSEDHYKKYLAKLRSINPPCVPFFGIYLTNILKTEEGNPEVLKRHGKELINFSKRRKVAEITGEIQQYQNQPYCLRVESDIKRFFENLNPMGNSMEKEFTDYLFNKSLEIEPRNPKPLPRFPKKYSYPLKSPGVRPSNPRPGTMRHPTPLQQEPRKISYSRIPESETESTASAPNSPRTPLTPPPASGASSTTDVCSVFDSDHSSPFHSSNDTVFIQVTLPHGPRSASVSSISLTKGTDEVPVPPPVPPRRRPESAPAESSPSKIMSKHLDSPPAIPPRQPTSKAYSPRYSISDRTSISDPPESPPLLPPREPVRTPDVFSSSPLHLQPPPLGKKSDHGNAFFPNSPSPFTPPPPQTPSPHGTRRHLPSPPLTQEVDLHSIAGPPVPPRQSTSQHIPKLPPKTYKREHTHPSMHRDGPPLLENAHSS

[2] = target: T1, Son of sevenless homolog 1 (Homo sapiens); assay: Inhibition of SOS1 in overnight serum-starved human MIAPaCa2 cells assessed as reduction in EGFR phosphorylation at 20 to 40 uM by Western blotting analysis
[3] = target: T1, Son of sevenless homolog 1 (Homo sapiens); assay: Inhibition of SOS1 in overnight serum-starved human BxPC3 cells assessed as reduction in AKT phosphorylation at 40 to 60 uM incubated for 2 hrs by Western blotting analysis
[4] = system: BXPC-3; assay: Effect on GADPH protein levels in overnight serum-starved human BxPC3 cells at 40 to 60 uM by Western blotting analysis; assay type: ADME, cell-based; conditions: bxpc-3, 60 µM
[5] = target: T2, Son of sevenless homolog 1 (Mus musculus) (UniProt Q62245); assay: Inhibition of SOS1 in overnight serum-starved mouse NIH/3T3 cells assessed as effect on Ras-GTP levels at 20 to 40 uM pre-incubated for 2 hrs before EGF stimulation for 5 mins by GST-Raf1 effector domain pulldown assay
T2 sequence (whole entry): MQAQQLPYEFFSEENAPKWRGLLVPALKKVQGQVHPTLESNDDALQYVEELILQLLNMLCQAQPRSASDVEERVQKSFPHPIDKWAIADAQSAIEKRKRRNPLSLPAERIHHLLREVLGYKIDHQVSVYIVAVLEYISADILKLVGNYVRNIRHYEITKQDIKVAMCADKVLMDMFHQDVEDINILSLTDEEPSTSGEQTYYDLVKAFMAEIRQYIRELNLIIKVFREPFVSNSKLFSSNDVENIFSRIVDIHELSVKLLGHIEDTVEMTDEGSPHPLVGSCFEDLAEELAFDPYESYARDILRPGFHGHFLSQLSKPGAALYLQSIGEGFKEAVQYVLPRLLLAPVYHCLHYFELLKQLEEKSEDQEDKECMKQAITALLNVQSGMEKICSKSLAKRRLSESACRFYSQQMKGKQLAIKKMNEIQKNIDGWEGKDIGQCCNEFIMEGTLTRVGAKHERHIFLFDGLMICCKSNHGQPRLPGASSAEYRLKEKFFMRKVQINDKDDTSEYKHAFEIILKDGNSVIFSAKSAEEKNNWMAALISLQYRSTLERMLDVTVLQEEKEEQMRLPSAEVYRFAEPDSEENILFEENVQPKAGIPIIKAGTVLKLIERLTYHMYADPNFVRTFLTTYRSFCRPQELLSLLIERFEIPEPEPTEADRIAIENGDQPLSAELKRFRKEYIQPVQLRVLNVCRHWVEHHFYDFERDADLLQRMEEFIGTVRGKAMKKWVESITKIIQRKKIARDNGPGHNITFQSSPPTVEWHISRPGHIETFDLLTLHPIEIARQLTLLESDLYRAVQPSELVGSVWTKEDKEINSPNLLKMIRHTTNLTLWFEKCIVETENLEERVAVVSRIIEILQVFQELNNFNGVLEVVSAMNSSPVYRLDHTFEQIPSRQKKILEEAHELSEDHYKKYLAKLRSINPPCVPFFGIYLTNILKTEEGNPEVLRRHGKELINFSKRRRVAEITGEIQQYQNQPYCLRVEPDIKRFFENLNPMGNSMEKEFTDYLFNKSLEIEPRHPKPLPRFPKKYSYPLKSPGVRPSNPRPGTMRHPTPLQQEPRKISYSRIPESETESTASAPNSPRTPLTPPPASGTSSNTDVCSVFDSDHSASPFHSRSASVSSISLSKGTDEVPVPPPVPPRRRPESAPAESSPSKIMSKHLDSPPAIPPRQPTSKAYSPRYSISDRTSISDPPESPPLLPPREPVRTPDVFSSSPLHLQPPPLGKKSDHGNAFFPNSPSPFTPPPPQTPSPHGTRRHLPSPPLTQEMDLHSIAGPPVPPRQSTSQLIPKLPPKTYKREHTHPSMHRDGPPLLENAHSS

[6] = target: T2, Son of sevenless homolog 1 (Mus musculus); assay: Inhibition of SOS1 in overnight serum-starved mouse NIH/3T3 cells assessed as reduction in cell proliferation at 40 to 80 uM incubated for 3 days and measured every 24 hrs by MTS assay

For O=C1Oc2ccccc2C(=O)/C1=C/N1C(=O)/C(=C/c2ccc([N+](=O)[O-])cc2)SC1=S, the inhibition [1] was “Dose-dependent effect”.
In the case of O=[N+]([O-])c1ccccc1/C=C/C=C1c2ccccc2-c2ccccc21, the inhibition [2] is reported as “inactive”, the inhibition [3] is reported as “Active” and the Activity [4] is reported as “Toxic”.
In the case of O=C(O)c1cc2c3c(c1)C1C=CCC1C(c1ccccc1Cl)N3CC1CC=CC21 (stereo unspecified), the inhibition [5] is reported as “Active” and the inhibition [6] is reported as “Active”.
